The values that follow come from ChEMBL document CHEMBL3727353, “Small-molecule choline kinase inhibitors as anti-cancer therapeutics” (2011).

A short description of data set [1]: AUC (0 to infinity) in Balbc mouse at 5 mg/kg, iv by LC-MS/MS analysis. The format is ADME, organism-based. The arrangement: dose 5 mg/kg, time infinity, route intravenous. As to conditions: BALB/c, in vivo.
A short description of data set [2]: Clearance in Balbc mouse at 5 mg/kg, iv by LC-MS/MS analysis. The data set is classed as ADME, organism-based. The following applies: BALB/c, in vivo.
Data set [3] can be described thus: Terminal half life in Balbc mouse at 5 mg/kg, iv by LC-MS/MS analysis. The data set is classed as ADME, organism-based. The following applies: BALB/c, in vivo, read-out: beta t1/2 (converted).
The test system of another data set is MDA-MB-231. The data set is described as follows: Antiproliferative activity against human MDA-MB-231 cells after 72 hrs by alamar blue assay. As to conditions: MDA-MB-231, 72 h. The data set is classed as functional, cell-based. On the technique in general: The colour change of resazurin is a common sign of viable cells or microbes.
Another data set has as its system K562. Nature of the data set: Antiproliferative activity against human K562 cells after 72 hrs by alamar blue assay. The format is functional, cell-based. The following applies: K562, 72 h.

As a reminder, the AUC(0-inf) is the area under the concentration-time curve extrapolated to infinity. The clearance is the rate of elimination divided by the concentration. The low end stands for inefficient removal, the high end for efficient removal. In data set [1], `CCOc1ccc(-c2nnc(SCC(=O)Nc3cc(C)cc(C)c3)[nH]2)cc1F` returned an AUC(0-inf) of 1290 ng·h/mL. The compound further registered a clearance in data set [2] of 129 mL/min/kg. Also, the half-life in data set [3] is 9 min.

Usually IC50 stands for the concentration that inhibits the measured activity by half. Consider `COc1ccc(-c2nnc(SCC(=O)Nc3ccc(F)cc3F)[nH]2)cc1`, for which the IC50 turned out to be 78.7 µM in the data set with MDA-MB-231 and 37 µM in the data set with K562.
